Consider four cell lines from the supplement of paper PMC10307832.

Assay in all cases: relative viability (nuclei count vs DMSO), 5 days (fraction); higher = more cells survive
Compound in experiment [1]: NCC(=O)Nc1ccc(-n2nc(C(F)(F)F)cc2-c2ccc3c(ccc4ccccc43)c2)cc1 + NC(=O)Nc1cc(-c2cccc(F)c2)sc1C(=O)N[C@H]1CCCNC1 [AZD7762] (partner 0.2 µM)
Put shortly:
(§1)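 Lung cancer cell lines were pin-tool dosed in 1536-well plates on the day after seeding, with either a lone drug or a fixed anchor-drug dose plus five library-drug doses (not always all listed) in √10 steps. Nuclei were counted on 4× images after 5 days. Relative viability is the ratio of treated-well to vehicle-well nuclei counts, with each value a median of duplicate plates.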

Compound in experiment [2]: NCC(=O)Nc1ccc(-n2nc(C(F)(F)F)cc2-c2ccc3c(ccc4ccccc43)c2)cc1 + CCNC(=O)c1noc(-c2cc(C(C)C)c(O)cc2O)c1-c1ccc(CN2CCOCC2)cc1 [Luminespib] (partner 0.01 µM)
Put shortly:
as §1

Compound in experiment [3]: NCC(=O)Nc1ccc(-n2nc(C(F)(F)F)cc2-c2ccc3c(ccc4ccccc43)c2)cc1 + COc1cccc2cc(-c3nc([C@H]4CC[C@H](C(=O)O)CC4)n4ncnc(N)c34)[nH]c12 [OSI-027] (partner 0.5 µM)
In a few lines: as §1

Compound in experiment [4]: NCC(=O)Nc1ccc(-n2nc(C(F)(F)F)cc2-c2ccc3c(ccc4ccccc43)c2)cc1 + CS(=O)(=O)CCNCc1ccc(-c2ccc3ncnc(Nc4ccc(OCc5cccc(F)c5)c(Cl)c4)c3c2)o1 [Lapatinib] (partner 2 µM)
Put shortly:
as §1

With NCI-H1915, the relative viability in experiment [1] (first compound 0.02 µM) was found to be 0.644; in experiment [1] (first compound 0.06325 µM), 0.729; in experiment [1] (first compound 0.2 µM), 0.642; in experiment [1] (first compound 0.6325 µM), 0.703; in experiment [1] (first compound 2 µM) it was 0.754; in experiment [2] (first compound 0.02 µM), 0.817. In addition, the relative viability in experiment [2] (first compound 0.06325 µM) came to 0.756; in experiment [2] (first compound 0.2 µM), 0.779; in experiment [2] (first compound 0.6325 µM), 0.815; in experiment [2] (first compound 2 µM) it was 0.769; in experiment [3] (first compound 0.02 µM), 0.463; in experiment [3] (first compound 0.06325 µM) it was 0.652. Further, the relative viability in experiment [3] (first compound 0.2 µM) is 0.639; in experiment [3] (first compound 0.6325 µM) it was 0.617; in experiment [3] (first compound 2 µM) it was 0.63; in experiment [4] (first compound 0.02 µM) it was 0.922; in experiment [4] (first compound 0.06325 µM), 0.939; in experiment [4] (first compound 0.2 µM) it was 0.942. The relative viability in experiment [4] (first compound 0.6325 µM) worked out at 0.95; in experiment [4] (first compound 2 µM), 0.996.
NCI-H1944: the relative viability in experiment [1] (first compound 0.02 µM) was 0.476; in experiment [1] (first compound 0.06325 µM) it was 0.484; in experiment [1] (first compound 0.2 µM) it was 0.551; in experiment [1] (first compound 0.6325 µM) it was 0.47; in experiment [1] (first compound 2 µM), 0.559; in experiment [2] (first compound 0.02 µM), 0.667. Moreover, the relative viability in experiment [2] (first compound 0.06325 µM) was 0.71; in experiment [2] (first compound 0.2 µM), 0.787; in experiment [2] (first compound 0.6325 µM) it was 0.715; in experiment [2] (first compound 2 µM), 0.75; in experiment [3] (first compound 0.02 µM) it was 0.37; in experiment [3] (first compound 0.06325 µM), 0.442. For the same cell line, the relative viability is 0.427 in experiment [3] (first compound 0.2 µM); 0.423 in experiment [3] (first compound 0.6325 µM); 0.47 in experiment [3] (first compound 2 µM); 0.813 in experiment [4] (first compound 0.02 µM); 0.888 in experiment [4] (first compound 0.06325 µM); 0.752 in experiment [4] (first compound 0.2 µM). The relative viability worked out at 0.801 in experiment [4] (first compound 0.6325 µM) and 0.876 in experiment [4] (first compound 2 µM).
For NCI-H1975, the relative viability in experiment [1] (first compound 0.02 µM) worked out at 0.732; in experiment [1] (first compound 0.06325 µM), 0.699; in experiment [1] (first compound 0.2 µM) it was 0.777; in experiment [1] (first compound 0.6325 µM), 0.691; in experiment [1] (first compound 2 µM), 0.708; in experiment [2] (first compound 0.02 µM), 0.125. Also, the relative viability in experiment [2] (first compound 0.06325 µM) was found to be 0.29; in experiment [2] (first compound 0.2 µM), 0.236; in experiment [2] (first compound 0.6325 µM), 0.278; in experiment [2] (first compound 2 µM) it was 0.247; in experiment [3] (first compound 0.02 µM), 0.676; in experiment [3] (first compound 0.06325 µM) it was 0.811. Moreover, the relative viability in experiment [3] (first compound 0.2 µM) was determined as 0.772; in experiment [3] (first compound 0.6325 µM) it was 0.834; in experiment [3] (first compound 2 µM), 0.752; in experiment [4] (first compound 0.02 µM), 0.816; in experiment [4] (first compound 0.06325 µM), 0.915; in experiment [4] (first compound 0.2 µM), 0.854. For the same cell line, the relative viability in experiment [4] (first compound 0.6325 µM) is 0.91; in experiment [4] (first compound 2 µM), 0.969.
In the case of NCI-H1993, the relative viability in experiment [1] (first compound 0.02 µM) is 0.957; in experiment [1] (first compound 0.06325 µM) it was 0.933; in experiment [1] (first compound 0.2 µM), 0.706; in experiment [1] (first compound 0.6325 µM) it was 0.839; in experiment [1] (first compound 2 µM), 0.784; in experiment [2] (first compound 0.02 µM), 0.887. The relative viability in experiment [2] (first compound 0.06325 µM) worked out at 0.88; in experiment [2] (first compound 0.2 µM) it was 0.901; in experiment [2] (first compound 0.6325 µM) it was 0.784; in experiment [2] (first compound 2 µM) it was 0.957; in experiment [3] (first compound 0.02 µM), 0.545; in experiment [3] (first compound 0.06325 µM), 0.493. In addition, the relative viability in experiment [3] (first compound 0.2 µM) amounted to 0.541; in experiment [3] (first compound 0.6325 µM), 0.483; in experiment [3] (first compound 2 µM), 0.542; in experiment [4] (first compound 0.02 µM), 0.754; in experiment [4] (first compound 0.06325 µM), 0.707; in experiment [4] (first compound 0.2 µM) it was 0.859. Moreover, the figures for the relative viability in experiment [4] (first compound 0.6325 µM) and in experiment [4] (first compound 2 µM) were 0.909 and 0.901, respectively.
